Patent US11148998B2, “Dimethyl-nonatetraenyl-trimethyl-cyclohexyl compounds and uses thereof” (The Regents of the University of Michigan, priority 2017, dated 2021)

Key:
[1] = tested on: NB4 cells (PML cell line); assay: NB4 cell differentiation (morphology, phase contrast); type: cell-based; details: 50 μg/mL, 48 hours
Experimental: FIGS. 8A & FIG. 8B: Morphological change with Compound 2. Control NB4 cells are shown after 48 hours incubation in culture medium in FIG. 8A.
Concentration-dependent and time-dependent growth inhibition studies were carried out in vitro. Cells were plated in wells of a 24-well dish at 5×10^4 cells per well in maintenance media (DMEM+2% fetal bovine serum. Each of the experimental retinoids were added at the desired concentrations and the cells incubated for 3 days. At the end of the incubation period, cells were counted using an electronic particle counter. Viability was determined by exclusion of trypan blue. To assess differentiation, cells were treated for three days with either the desired agent (or control) in culture medium. At the end of the incubation period, the cells were photographed under phase-contrast microscopy.
Inhibition could be seen at both 48 and 72 hours of incubation. […] The polarized, flattened morphology is evidence of differentiation. These studies, thus, indicate that the experimental retinoids have potential as anti-cancer agents.

[2] = tested on: human dermal fibroblasts; assay: Retinoid-induced fibroblast cytotoxicity; type: cell-based; details: KBM 1.5 mM calcium, 72 hours, up to 5 μg/mL
Experimental: Human dermal fibroblasts are isolated from skin biopsies as described previously and grown in monolayer culture using DMEM supplemented with 10% fetal bovine serum as culture medium (see, e.g., Varani J, et al., J Clin Invest. 1994; 94; Varani J, et al., J. Invest. Dermatol. 94:717-723, 1990). Growth is at 37° C. in a humidified atmosphere containing 5% CO2 and 95% air. For experimental studies, cells are plated at 5×10^4 cells per well in wells of a 24-well culture dish in the same culture medium. One day later, cells are washed and the DMEM culture medium is replaced with Keratinocyte Basal Medium (KBM).
This assay is similar to the fibroblast cytotoxicity assay except that the human dermal fibroblasts are plated in culture medium (KBM) supplemented with a concentration of calcium (1.5 mM) that supports survival on its own. The biologically active retinoids are included in the culture medium and the cells incubated for 72 hours. Under such conditions, there is little net increase in growth with added retinoid, and at high concentrations, cytotoxicity occurs (see, e.g., Varani, J., et al., J. Invest. Dermatol. 101:839-842).
That is, there was little decline in cell numbers compared to control with retinoid concentrations up to 5 μg/mL.

[3] = tested on: normal human skin in organ culture; assay: Retinoid-induced skin thickening in human skin organ culture; type: cell-based; details: 1 μg/mL, 8 days organ culture
Experimental: Human skin biopsies were incubated for 8 days in organ culture. […] At the end of the incubation period, the tissue was fixed for histology and examined at the light microscopy level after staining with hematoxylin and eosin. […] These abnormalities are not seen in the ex. 1—treated skin section.
Replicate 2-mm punch biopsies (up to 12 per subject) are obtained from hip skin of volunteers 18-70 years of age. The participation of human subjects is approved by the University of Michigan Institutional Review Board and all subjects provide written informed consent prior to their inclusion in the study. The punch biopsies are incubated in wells of a 24 well dish (one tissue piece per 200-500 μL of culture medium). Culture medium consists of KBM. For organ culture, the culture medium is supplemented with calcium chloride to a final calcium concentration of 1.5 mM. One or two wells are typically left as control while the others are treated as desired. Fresh culture medium and treatments are provided at 2-day intervals. Organ culture-conditioned medium collected at day-2 is saved for cytokine assessment or for measure of other bioactive molecules as desired. At the end of the incubation period (typically, day-8), the tissue is fixed in 10% buffered formalin and used for histology. The organ culture protocol used here is virtually identical to that described in several past reports (see, e.g., Varani J, et al., J Clin Invest. 1994; 94:1747-1756; Varani J, et al., Am J Pathol. 1993 January; 142(1):189-98; Lateef H, et al., Am J Pathol. 2004; 165:167-174; Varani J, et al., Exp Mol Pathol. 2004; 77(3):176-83; Varani J, et al., Am J Pathol. 1993 June; 142(6):1813-22; Varani J, et al., Toxicol. Pathol. 35:693-701, 2007; Rittié L, et al., J Invest Dermatol, 126:732-739, 2006).

[4] = Rhino mouse topical treatment: spleen size; type: in vivo; details: 0.1% topical, 21 days
Text: Mouse skin is rather thinner than human skin, and topically applied drugs tend to get into the circulation more readily when applied to mice, especially the hairless mutants, than to humans.

[5] = tested on: human skin in organ culture; details: cited from earlier work

| Compound | morphological change (evidence of differentiation) [1] | fibroblast cytotoxicity (decline in cell numbers compared to control) [2] | epidermal thickening (hyperplastic changes), histology [3] | toxicity in the upper epidermis, histology [3] | spleen size (splenomegaly) [4] | effect on collagen-degrading enzyme MMP-1 (collagenase 1) ([5]; human skin organ culture model) | procollagen I production ([5]; human skin organ culture model) | up-regulation of the pro-inflammatory cytokines that underlie retinoid-induced skin irritation ([5]; past studies) |
| --- | --- | --- | --- | --- | --- | --- | --- | --- |
| CC1=C(/C=C/C(C)=C\C=C\C(C)=C\C(=O)N(C)CC(=O)c2ccccc2)C(C)(C)CCC1 [Example 2, (2E,4E 6Z,8E)-N,3,7-trimethyl—N-(2-oxo-2-phenylethyl)-9-(2,6,6-trimethylcyclohex-1-en-1-yl)nona-2,4,6,8-tetraenamide] | polarized and flattened |  |  |  |  |  |  |  |
| CC1=C(/C=C/C(C)=C/C=C/C(C)=C/C(=O)O)C(C)(C)CCC1 [ATRA, all-trans retinoic acid, reference compound] |  | lack of fibroblast cytotoxicity at concentrations as high as 5 μg/mL | hyperplastic changes (increased epidermal thickening) | evidence of toxicity in the upper epidermis (i.e., incomplete keratinization with loss of granular layer) | very marked splenomegaly | inhibited the major collagen-degrading enzyme (MMP-1, collagenase 1) | induced procollagen I production | as expected, did |
| CC1=C(/C=C/C(C)=C\C=C\C(C)=C\C(=O)N(C)CC(=O)C(C)(C)C)C(C)(C)CCC1 [Example 1, (2E,4E 6Z,8E)-N-(3,3-dimethyl-2-oxobutyl)-N,3,7-trimethyl-9-(2,6,6-trimethylcyclohex-1-en-1-yl)nona-2,4,6,8-tetraenamide] |  |  | hyperplastic changes (increased epidermal thickening) | not seen |  |  |  |  |
